According to patent publication US8393321B2, “Drug delivery system for conscious sedation” (Piramal Critical Care, Inc., priority 2001, dated 2013):
Like-named read-outs stand apart in the source and are kept apart here.

Experiments:
patients [1] = assay: Conscious sedation (CS) level, MAC equivalent of 70% nitrous oxide; assay type: in vivo, human
Description: The concentration of oxygen in the atmosphere approximates 21%. […] The most common ratio is 70% N2O/30% oxygen, although some delivery systems maintain 50% oxygen.
The potency of anesthetic agents is measured by the minimum alveolar concentration of an anesthetic producing immobility in 50% of patients, defined as 39 year old males, undergoing surgical incision (“MAC”). […] In present inhalant conscious sedation systems, nitrous oxide is delivered in conjunction with a minimum of 30% oxygen to insure the patient maintains a sufficient level of oxygen. […] For this description a MAC equivalent of 70% nitrous oxide will be used for comparison with other inhalants, as shown in Table 2.

patients [2] = conditions: in 100% oxygen for middle-aged men, cited from earlier work
[3] = soda lime (calcium hydroxide) and/or UV light; cited from earlier work
patients [4] = conditions: N2O with oxygen; cited from earlier work
patient = conditions: conscious sedation; cited from earlier work

| Structure (SMILES) | MAC (patients [2]) [%] | decomposition in presence of soda lime and/or UV light [3] | Implied CS Level (patients [1]; in vivo) [%] | Abuse Potential (patient) | Safety Profile (patient) | also measured |
| --- | --- | --- | --- | --- | --- | --- |
| COC(F)(F)C(Cl)Cl [Methoxyflurane] | 0.16 | decompose | – | – | – | Implied CS Level (patients [1]; MAC equivalent of 70% nitrous oxide (.636)): 0.11%; MAC (patients [2]; listed as methoxyflurane): 0.16% |
| FC(F)OC(Cl)C(F)(F)F (stereo not shown) [Isoflurane] | 1.15 | – | 0.73 | – | – | – |
| [N-]=[N+]=O [Nitrous Oxide] | 110.00 | – | 70.00 | Recre- | Teratogenic | MAC Equivalent (patients [1]; in vivo): .636; Minimum Alveolar Content (MAC) of 70% N2O/30% oxygen mixture (patients [1]; in vivo): 0.636 MAC; MAC (patients [2]; listed as nitrous oxide): 110%; mixture concentration at which conscious sedation occurs in most patients (patients [4]): 70% |
| CN1C(=O)CN=C(c2ccccc2)c2cc(Cl)ccc21 [IV Diazepam, Diazepam] | – | – | – | Controlled | Moderate | – |
| FCOC(C(F)(F)F)C(F)(F)F [Sevoflurane] | 2.00 | decompose | 1.27 | – | – | – |
| FC(F)OC(F)C(F)(F)F (stereo not shown) [Desflurane] | 6.00 | – | 3.82 | – | – | – |
| Cc1ncc2n1-c1ccc(Cl)cc1C(c1ccccc1F)=NC2 [IV Midazolam, Midazolam] | – | – | – | Controlled | Moderate | – |
| FC(F)(F)C(Cl)Br (stereo not shown) [Halothane] | 0.75 | decompose | 0.48 | – | – | – |
| FC(F)OC(F)(F)C(F)Cl (stereo not shown) [Enflurane] | 1.68 | – | 1.07 | – | – | – |
